Results reported in US7186695B2 (priority 2001, dated 2007).
“Also recorded” adds a separate entry of the source.

Columns and labels:
[1] = Binding of GSAO to dithiols, loss of thiols in DTNB assay; conditions: errors are 1 SD, read-out: Dissociation Constant
Experimental: (§1) FIG. 12. Interaction of GSAO with synthetic. Deptide and protein dithiols. DMP (A) (15 μM), 6,8-thioctic acid (B) ([…]), dithiothreitol (C) (8.5 μM), TrpCysGlyProCysLys (D) (4.6 μM), TrpCysGlyHisCysLys (E) (5.5 μM) or thioredoxin (F) (4.1 μM corresponding to 20.6 μM thiols) was incubated with GSAO (0–56 μM) for 10 minutes. DTNB (950 μM) was then added and the reactions incubated for a further 10 minutes. The concentration of thiol in the reactions was determined from the absorbance of the TNB dianion at 412 nm. The solid lines represent the best non-linear least squares fit of the data to Equation 1 (A to E) or Equation 2 (F) and have been drawn using the parameter estimates in Table 1. […]
(§2) A stock solution of DMP (5 μL, 50 μmol) was dissolved in DMSO (995 μL), giving a concentration of 50 mM DMP. […] The activity of the arsenical could then be determined by the titration of varying amounts of arsenical against the DMP working solution (10 μL) in a 96-well microbitre plate, with the total volume made up to 195 μL by addition of buffer. […] The absorbance at 412 nm due to the formation of the TNB dianion was measured using a Molecular Devices Thermomax Plus (Palo Alto, Calif.) microplate reader. […]
Binding of GSAO to dithiols was measured from loss of thiols using the DTNB assay described above. […]

Thioredoxin [2] = target: T1, Thioredoxin (Homo sapiens, UniProt P10599); assay: Binding of GSAO to thioredoxin active site dithiol, DTNB assay
T1 construct: purchased American Diagnostica, Greenwich, Conn; host or cells: E. coli
T1 sequence (P10599 1-105): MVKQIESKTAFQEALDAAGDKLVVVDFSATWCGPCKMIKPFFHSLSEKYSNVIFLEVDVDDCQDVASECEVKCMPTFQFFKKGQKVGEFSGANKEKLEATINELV
Experimental: as §1, with “1. The dotted line in part A represents a simulated titration assuming an infinite affinity of GSAO for the dithiol.” for “1.”
as §2

[3] = Interaction of GSAO with synthetic, peptide and protein dithiols (summary); format: binding; conditions: units printed within the range; read-out: dissociation constants, range over all dithiols
Experimental: FIG. 12. Interaction of GSAO with synthetic. Deptide and protein dithiols. DMP (A) (15 μM), 6,8-thioctic acid (B) ([…]), dithiothreitol (C) (8.5 μM), TrpCysGlyProCysLys (D) (4.6 μM), TrpCysGlyHisCysLys (E) (5.5 μM) or thioredoxin (F) (4.1 μM corresponding to 20.6 μM thiols) was incubated with GSAO (0–56 μM) for 10 minutes. DTNB (950 μM) was then added and the reactions incubated for a further 10 minutes. The concentration of thiol in the reactions was determined from the absorbance of the TNB dianion at 412 nm. The solid lines represent the best non-linear least squares fit of the data to Equation 1 (A to E) or Equation 2 (F) and have been drawn using the parameter estimates in Table 1. The dotted line in part A represents a simulated titration assuming an infinite affinity of GSAO for the dithiol. GSAO bound to both synthetic, peptide and protein dithiols with dissociation constants in the range 130 nM to 1.4 μM.
Binding of GSAO to dithiols was measured from loss of thiols using the DTNB assay described above. The dissociation constant, Kd, for GSAO binding to dithiols was determined by incubating increasing concentrations of GSAO, I, with a fixed dithiol concentration, [S]T, and measuring the remaining dithiol using DTNB. Note that the concentration of dithiol equals half the TNB concentration. […]

Thioredoxin [4] = target: T1, Thioredoxin; assay: Inhibition of thioredoxin-mediated reduction of 70 kDa fibronectin fragment; format: biochemical; conditions: 1 μM thioredoxin, 10 minutes
Experimental: FIG. 13. Inhibition of thioredoxin by GSAO. Thioredoxin (1 μM) was incubated with GSAO (0, 1 or 10 μM) for 10 minutes at room temperature in 20 mM Hepes, 0.14 M NaCl, pH 7.4 buffer. The 70 kDa fibronectin fragment (10 μg per mL) was added and incubated for 5 minutes at room temperature. The reactions were labelled with MPB (100 μM) for 10 minutes at 37° C. The MPB was quenched with GSH (200 μM) for 10 minutes at 37° C. followed by Iodoacetamide (400 μM) for 10 minutes at room temperature. The MPB-labelled 70 kDa fragment was resolved on 5–15% SDS-PAGE, transferred to PVDF membrane and the MPB detected by blotting with streptavidin peroxidase. The positions of Mr markers are shown at left.
It was observed that thioredoxin reduced one or more protein disulfide bonds in the 70 kDa N-terminal fragment of fibronectin.

[5] = tested on: adjuvant-induced arthritis, rat ankles; conditions: in vivo
[6] = tested on: adjuvant-induced arthritis; conditions: rat, in vivo

With `NC(CCC(=O)NC(CSCC(=O)Nc1ccc([As]=O)cc1)C(=O)NCC(=O)O)C(=O)O` (stereo not shown) [GSAO, 4-(N-(S-glutathionylacetyl)amino)-phenylarsenoxide] the Kd ([1]; ring size 6) was 200 ± 50 nM, the Kd ([1]; ring size 7) was 420 nM and the Kd (Thioredoxin [2]) was 370 ± 180 nM. For the same compound, the “higher affinity for thioredoxin than for the thioredoxin active site hexapeptide” value (Thioredoxin [2]; thioredoxin vs TrpCysGlyProCysLys) was roughly 4 fold, the Kd [3] was 130 to 1400 nM and the inhibition at 1 µM (Thioredoxin [4]; 1 μM GSAO) was roughly 50%. For the same compound, the “inhibition of thioredoxin activity” value (Thioredoxin [4]; 10 μM GSAO) was “completely inhibited”, the pannus formation [5] was “significantly reduced; also recorded: little to no pannus formation” and the “periarticular inflammation (density of inflammatory cells)” value [5] was “significantly reduced; also recorded: almost no inflammatory cells”. The “signs of new bone formation (periosteal reaction)” value [5] was “none”, the “development of arthritis measured by arthritis severity score, gait, paw volume or weight loss” value [6] was “effectively blocked” and the “signs or symptoms of toxicity for the rats” value [6] was “no signs or symptoms of toxicity”. For the same compound, the “weight gain, GSCA vs GSAO treated rats” value ([6]; 2 mg/kg) was “no difference in weight gain”.
